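Method: 48-hour compound exposure of cells in 96-well plates, five concentrations, linear interpolation of endpoints. At the GI50, growth is halved. Definition used: TGI = concentration required for complete inhibition of growth.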
Experiments:
Experiment in all cases: NCI anticancer screen, dose series, 48 h
CCRF-CEM leukemia = tested on: CCRF-CEM leukemia
EKVX NSCLC = tested on: EKVX NSCLC
K-562 leukemia = tested on: K-562 leukemia
MALME-3M melanoma = tested on: MALME-3M melanoma
MDA-MB-231 breast = tested on: MDA-MB-231 breast
NCI/ADR-RES ovarian = tested on: NCI/ADR-RES ovarian
PC-3 prostate = tested on: PC-3 prostate
RPMI-8226 leukemia = tested on: RPMI-8226 leukemia
SNB-75 CNS = tested on: SNB-75 CNS
T-47D breast = tested on: T-47D breast

Row | Compound | GI50 (CCRF-CEM leukemia) | TGI (CCRF-CEM leukemia) | GI50 (EKVX NSCLC) | TGI (EKVX NSCLC) | GI50 (K-562 leukemia) | TGI (K-562 leukemia) | GI50 (MALME-3M melanoma) | TGI (MALME-3M melanoma) | GI50 (MDA-MB-231 breast) | TGI (MDA-MB-231 breast) | GI50 (NCI/ADR-RES ovarian) | TGI (NCI/ADR-RES ovarian) | GI50 (PC-3 prostate) | TGI (PC-3 prostate) | GI50 (RPMI-8226 leukemia) | TGI (RPMI-8226 leukemia) | GI50 (SNB-75 CNS) | TGI (SNB-75 CNS) | GI50 (T-47D breast) | TGI (T-47D breast)
1 | O=C1CC(c2c[nH]c3ccc(F)cc23)C(=O)N1 (stereo not given) | > 100 µM | > 100 µM | > 100 µM | > 100 µM | > 100 µM | > 100 µM | > 100 µM | > 100 µM | > 100 µM | > 100 µM | > 100 µM | > 100 µM | > 100 µM | > 100 µM | > 100 µM | > 100 µM | > 100 µM | > 100 µM | > 100 µM | > 100 µM
2 | CCCCN(CCCC)C(=O)[C@H](CC)[C@@H]1CC[C@@H](C)[C@@H]([C@H](C)[C@@H](O)[C@@H](C)C(=O)[C@H](CC)C2O[C@]3(C=C[C@@H](O)[C@]4(CC[C@@](C)([C@H]5CC[C@](O)(CC)[C@H](C)O5)O4)O3)[C@H](C)C[C@@H]2C)O1 (stereo not given in full) | 3.13 µM | 11.7 µM | 2.32 µM | 8.8 µM | 2.66 µM | 18.4 µM | 1.87 µM | 4.16 µM | 1.57 µM | 3.19 µM | 2.5 µM | 9.02 µM | 2.05 µM | 16.8 µM | 1.79 µM | 5.85 µM | 1.78 µM | 26.9 µM | 2.34 µM | 63.8 µM
3 | C#Cc1cccc(Nc2ncnc3cc(NC(=O)CCl)ccc23)c1 | 0.626 µM | 2.7 µM | 2.5 µM | 7.01 µM | 0.802 µM | 25 µM | 2.8 µM | 6.65 µM | 3.35 µM | 7.28 µM | 4.65 µM | 17.2 µM | 3.69 µM | 8.33 µM | 1.26 µM | 6.15 µM | 1.53 µM | 5.01 µM | 2.43 µM | 5.93 µM
4 | O=C1/C(=C/c2ccc(Cl)c(Cl)c2)CN(C(=O)C(Cl)Cl)C/C1=C\c1ccc(Cl)c(Cl)c1 | 0.0372 µM | > 100 µM | 0.223 µM | 0.757 µM | 0.0369 µM | > 36.2 µM | 0.237 µM | 0.669 µM | 0.237 µM | 1.16 µM | 0.107 µM | > 100 µM | 0.0737 µM | 0.712 µM | 0.0285 µM | 0.485 µM | 0.174 µM | 0.484 µM | 0.256 µM | 1.77 µM
5 | O=C1NC(=S)S/C1=C\c1cn(-c2ccccc2)nc1-c1ccccc1 | 2.5 µM | 69.8 µM | 3.03 µM | 23.6 µM | 7.54 µM | > 100 µM | 3.84 µM | 13.1 µM | 10.1 µM | 33.3 µM | 4.8 µM | > 100 µM | 5.66 µM | > 100 µM | 2.52 µM | 68.6 µM | 17.8 µM | 51.3 µM | 4.59 µM | 32.6 µM

Source: PubChem BioAssay (NCI)
